# Assay results: article PMC3010197 (Biochemistry, 2010)
# Values joined by “and” are separate entries in the source; they are usually repeats but may differ in a detail not shown here. Equal values may be shown once. Read-outs that look alike come from different tables or passages of the source.
# T1: Pnc1 (Saccharomyces cerevisiae nicotinamidase) (Saccharomyces cerevisiae, UniProt P53184)
# T1 sequence (P53184 1-216): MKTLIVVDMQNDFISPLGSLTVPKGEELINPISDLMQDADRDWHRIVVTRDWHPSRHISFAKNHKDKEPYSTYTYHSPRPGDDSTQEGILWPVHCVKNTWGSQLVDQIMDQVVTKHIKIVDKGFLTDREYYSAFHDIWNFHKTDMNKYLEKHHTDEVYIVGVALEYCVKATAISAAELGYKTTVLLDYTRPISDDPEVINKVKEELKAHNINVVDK
# B1: CePNC1 (Caenorhabditis elegans nicotinamidase 1) (Caenorhabditis elegans) (protein)
# chain: DNSATTNNNTILGNQSLEAIPEQLSELTGITVEESERIMESWLGNRQLDLRTSVLFDQEVLSRLRSLRVALLVVDFQNDFVDGSLKIGDGDAGQEPSSAITPLNELLQLSSWDLVVYTKDWHPHNHISFLSQAHNSDRVMDEKDENKTLGFFDSVQFLKPIKTEQVLYPDHCIQKSWGSDIHPEIYIADNAEYIMKGVDPYLDSYSAFNDNNGRSKTELEDLLRRENIDAVVIAGLAYDICVRFTCLDAVKQNFLAAVIPECSAGLTKKGIEESEMAFKKQGVAMISKDEARGITEGGFLPREWVQRIVKK
# B2: CePNC2 (Caenorhabditis elegans nicotinamidase 2) (Caenorhabditis elegans) (protein)
# chain: MGVVQNEQDIREKMKNELISLVNEIDLIPELDRLLDDFIENKTWNEDTQELFTRVVLKPFTTLRTSLLVVDFQNDFVTGSLSIKEGDAEQDPLEALPHVNNLLENLNWNMIVYTQDWHPSNHISFFEHARNPDRELAPEDKSRKLRPFDIVRFVKPVSTIQVLYPSHCIQGGWGSQLHLGLQRIDGAHYIKKGADVYVDAYSAFSDNCGIKQSELEMLLRKNDINAVIGCGLAYDICVMHTLKDASKHGFLTCIVKSGSKGLSSLKMDEANKMFQKRGVAIIDDEMAQLISRREAFPIEWIRLLVHQAQSELHGKK
# How the values were obtained:
# nicotinamidases = assay: Class-wide statements for all nicotinamidases studied; type: biochemical
# [1] = no reference given; cited from earlier work
# [2] = biological target: T1, Pnc1 (Saccharomyces cerevisiae nicotinamidase); assay: Inhibition analysis, GDH coupled nicotinamidase assay; type: biochemical; conditions: Km of nicotinamide over Ki of nicotinaldehyde
# [3] = biological target: S. cerevisiae nicotinamidase; conditions: reported as non-competitive; cited from earlier work
# [4] = biological target: T2, PfNic (Plasmodium falciparum nicotinamidase) (Plasmodium falciparum, UniProt O97284); assay: biochemical
# [5] = biological target: T3, SpNic (Streptococcus pneumoniae nicotinamidase) (Streptococcus pneumoniae, UniProt A0A0H2UR34); type: biochemical
# [6] = biological target: T1, Pnc1 (Saccharomyces cerevisiae nicotinamidase); assay: Substrate specificity: relative rates for nicotinamide analogues; type: biochemical
# [7] = biological target: T2, PfNic (Plasmodium falciparum nicotinamidase); type: biochemical
# [8] = biological target: T4, BbNic (Borrelia burgdorferi nicotinamidase) (Borreliella burgdorferi, UniProt O50718); type: biochemical
# [9] = system: Bovine glutamate dehydrogenase (GDH); conditions: GDH Km for NADPH; cited from earlier work
# SPNic C136A mutant = assay: Nicotinamidase catalytic rate of SpNic and mutants; type: biochemical, Streptococcus pneumoniae; conditions: 200 µM NAM, 37 °C, HPLC assay
# [10] = biological target: T1, Pnc1 (Saccharomyces cerevisiae nicotinamidase); assay: Steady state progress curve analysis, GDH coupled assay; conditions: substrate nicotinamide, 100 µM nicotinamide, pH 7.3
# SPNic C136S mutant = assay: Nicotinamidase catalytic rate of SpNic and mutants; type: biochemical, Streptococcus pneumoniae; conditions: 200 µM NAM, 37 °C, HPLC assay
# [11] = biological target: T3, SpNic (Streptococcus pneumoniae nicotinamidase); assay: Steady state progress curve analysis, GDH coupled assay; type: biochemical; conditions: substrate nicotinamide, 100 µM nicotinamide, pH 7.3
# [12] = biological target: T4, BbNic (Borrelia burgdorferi nicotinamidase); assay: Steady state kinetics of nicotinamide hydrolysis, HPLC assay; type: biochemical; conditions: substrate nicotinamide, 100 mM phosphate pH 7.3
# Steady state analysis = substrate: NC(=O)c1cccnc1; assay: Steady state analysis; type: biochemical, Caenorhabditis elegans; conditions: other: substrate nicotinamide, initial rates, pH 7.3
# [13] = footnote b: HPLC assay, 500 µM analogue, pH 7.3, 37 °C
# [14] = footnote a: GDH coupled fluorescence assay, 500 µM analogue, pH 7.3
molecule,measurement,setting,value
"O=C(O)c1cccnc1 [nicotinic acid, reference compound]",effect on nicotinamidase rates (product inhibition),"nicotinamidases; nicotinic acid up to 500 µM, all enzymes, data not shown",do not vary
same,pKa,[1],~3
"O=Cc1cccnc1 [compound 16, nicotinaldehyde]",Km/Ki,[2],7.6
same,Ki,[3],68 µM
same,factor by which Ki is smaller than the Km for nicotinamide,nicotinamidases; across all enzymes studied except yeast pnc1,91–3450
same,mode of inhibition (double reciprocal plots),"nicotinamidases; versus nicotinamide, in all cases",competitive inhibition
same,Ki,[4],0.034 ± 0.007 µM
"NC(=O)c1ccnc(N)c1 [compound 9, 2-Aminoisonicotinamide]",Relative rate (nicotinamide = 1.00),[5]; [13],0
same,Relative rate (nicotinamide = 1.00),[6]; [13],0
same,Relative rate (nicotinamide = 1.00),[7]; [13],0
"NC(=O)c1ccc(Cl)nc1 [compound 4, 6-chloronicotinamide]",Relative rate (nicotinamide = 1.00),[8]; [13],0
same,Relative rate (nicotinamide = 1.00),[5]; [13],0.018
same,Relative rate (nicotinamide = 1.00),[6]; [13],0.17
same,Relative rate (nicotinamide = 1.00),[7]; [13],0
"NC(=O)C1=CN([C@@H]2O[C@H](COP(=O)(O)OP(=O)(O)OC[C@H]3O[C@@H](n4cnc5c(N)ncnc54)[C@H](OP(=O)(O)O)[C@@H]3O)[C@@H](O)[C@H]2O)C=CC1 [NADPH, nicotinamide adenine dinucleotide phosphate reduced form]",Km,[9],28 µM
"C[n+]1ccc(C(N)=O)cc1 [compound 15, 1-methyl isonicotinamide]",Relative rate (nicotinamide = 1.00),[5]; [13],0
same,Relative rate (nicotinamide = 1.00),[6]; [13],0
same,Relative rate (nicotinamide = 1.00),[7]; [13],0
"COc1cncc(C(N)=O)c1 [compound 2, 5-Methoxynicotinamide]",Relative rate (nicotinamide = 1.00),[8]; [13],2.21
same,Relative rate (nicotinamide = 1.00),[5]; [13],1.37
same,Relative rate (nicotinamide = 1.00),[6]; [13],2.06
same,Relative rate (nicotinamide = 1.00),[7]; [13],6.46
"NC(=O)c1ccc(N)nc1 [compound 6, 6-aminonicotinamide]",Relative rate (nicotinamide = 1.00),[5]; [14],0.36
same,Relative rate (nicotinamide = 1.00),[6]; [14],0.20
same,Relative rate (nicotinamide = 1.00),[7]; [14],0.45
"C[n+]1cccc(C(N)=O)c1 [compound 14, 1-Methylnicotinamide]",Relative rate (nicotinamide = 1.00),[5]; [13],0
same,Relative rate (nicotinamide = 1.00),[6]; [13],0
same,Relative rate (nicotinamide = 1.00),[7]; [13],0
"NC(=S)c1cccnc1 [compound 10, Thionicotinamide]",Relative rate (nicotinamide = 1.00),[8]; no method footnote,0
same,Relative rate (nicotinamide = 1.00),[5]; no method footnote,0
same,Relative rate (nicotinamide = 1.00),[6]; no method footnote,0.44
same,Relative rate (nicotinamide = 1.00),[7]; no method footnote,0
"O=C(Oc1ccccc1)c1cccnc1 [compound 13, phenylnicotinate]",Relative rate (nicotinamide = 1.00),[5]; [13],0.031
same,Relative rate (nicotinamide = 1.00),[6]; [13],0.031
same,Relative rate (nicotinamide = 1.00),[7]; [13],0.13
"COC(=O)c1cccnc1 [compound 11, methylnicotinate]",Relative rate (nicotinamide = 1.00),[5]; [13],0.035
same,Relative rate (nicotinamide = 1.00),[6]; [13],0.15
same,Relative rate (nicotinamide = 1.00),[7]; [13],65.0
same,Relative rate (nicotinamide = 1.00),"[7]; footnote b: HPLC assay, 500 µM analogue, pH 7.3, 37 °C, listed as methylnicotinate",65
same,steady state rate constant of turnover,[7]; methylnicotinate as substrate,18 s⁻¹
"CC(=O)c1cccnc1 [compound 24, acetylpyridine]",Ki,[4],10 µM
"CCOC(=O)c1cccnc1 [compound 12, ethylnicotinate]",Relative rate (nicotinamide = 1.00),[5]; [13],0.0086
same,Relative rate (nicotinamide = 1.00),[6]; [13],0.044
same,Relative rate (nicotinamide = 1.00),[7]; [13],0.023
"O=Cc1ccc(F)nc1 [compound 21, 6-Fluoro-3-pyridinecarboxaldehyde]",Ki,[4],4.9 µM
"Cc1cncc(C(N)=O)c1 [compound 1, 5-methylnicotinamide]",Relative rate (nicotinamide = 1.00),[8]; [14],0.51
same,Relative rate (nicotinamide = 1.00),[5]; [14],1.63
same,Relative rate (nicotinamide = 1.00),[6]; [14],0.80
same,Relative rate (nicotinamide = 1.00),[7]; [14],3.30
"N#Cc1cccnc1 [compound 23, 3-cyanopyridine]",Ki,[4],1000 µM
"COc1ccncc1C(N)=O [compound 7, 4-Methoxynicotinamide]",Relative rate (nicotinamide = 1.00),[8]; [13],0.20
same,Relative rate (nicotinamide = 1.00),[5]; [13],0.065
same,Relative rate (nicotinamide = 1.00),[6]; [13],0.050
same,Relative rate (nicotinamide = 1.00),[7]; [13],0.12
"Cc1ccc(C(N)=O)cn1 [compound 5, 6-methylnicotinamide]",Relative rate (nicotinamide = 1.00),[8]; [14],0.45
same,Relative rate (nicotinamide = 1.00),[5]; [14],0.11
same,Relative rate (nicotinamide = 1.00),[6]; [14],0
same,Relative rate (nicotinamide = 1.00),[7]; [14],0.40
NC(=O)c1cccnc1 [nicotinamide],Relative rate (nicotinamide = 1.00),[8]; no method footnote,1.00
same,Catalytic rate (kobs),SPNic C136A mutant,< 10^−6 s^−1
same,Relative rate (nicotinamide = 1.00),[5]; no method footnote,1.00
same,Relative rate (nicotinamide = 1.00),[6]; no method footnote,1.00
same,kcat,[10],3.8 s^−1 and 3.8 ± 0.1 ^b s^−1
same,Catalytic rate (kobs),SPNic C136S mutant,< 10^−6 s^−1
same,Relative rate (nicotinamide = 1.00),[7]; no method footnote,1.00
same,kcat,[11],2.1 s⁻¹
same,Km,[12]; Michaelis-Menten fit,36.7 ± 7.5 µM
same,kcat,[12]; confirmed by HPLC assay,0.0030 ± 0.0002 ^b s^−1
"Cc1cncc(C=O)c1 [compound 19, 5-methylnicotinaldehyde]",Ki,[4],0.023 ± 0.005 µM
"NC(=O)c1cccnc1Cl [compound 3, 2-chloronicotinamide]",Relative rate (nicotinamide = 1.00),[8]; [13],0
same,Relative rate (nicotinamide = 1.00),[5]; [13],0
same,Relative rate (nicotinamide = 1.00),[6]; [13],0
same,Relative rate (nicotinamide = 1.00),[7]; [13],0
"NC(=O)c1ccncc1 [compound 8, isonicotinamide]",Relative rate (nicotinamide = 1.00),[5]; [13],0
same,Relative rate (nicotinamide = 1.00),[6]; [13],0
same,Relative rate (nicotinamide = 1.00),[7]; [13],0
B1,Km,Steady state analysis,113 ± 11 µM
same,kcat,Steady state analysis,3.1 ± 0.12 s⁻¹
B2,Km,Steady state analysis,76 ± 10 µM
same,kcat,Steady state analysis,0.28 ± 0.013 s⁻¹
